Experimental data: PMC6155273, “Antiprotozoal Activity of Triazole Derivatives of Dehydroabietic Acid and Oleanolic Acid” (Molecules : A Journal of Synthetic Chemistry and Natural …, 2017)
In brackets after ≈: the same amount, converted by molar mass. Like-named read-outs stand apart in the source and are kept apart here.

Experiments:
[1] = test system: axenically grown L. donovani amastigotes; details: literature value, no reference given; read-out: IC50 against axenically grown L. donovani amastigotes; cited from earlier work
[2] = test system: L. amazonensis amastigote; design: method as in PMID 15070160; details: cited from earlier work
[3] = test system: L. braziliensis, L. amazonensis, and L. infantum promastigotes; design: method as in PMID 26772973; details: read-out: IC50 against promastigotes of three Leishmania species; cited from earlier work
[4] = test system: L. amazonensis promastigote; design: method as in PMID 15070160; details: cited from earlier work
[5] = test system: L. braziliensis promastigotes; experiment: Leishmanicidal activity on L. braziliensis promastigotes (resazurin); type: cell-based, Leishmania braziliensis; details: Leishmania braziliensis, 48 h, read-out: Leishmanicidal Activity on Promastigotes, L. braziliensis, IC50
Experimental: (§1) Culture of L. braziliensis (MHOM/BR/75/M2904), and L. infantum (MHOM/FR/91/LEM2259V) was obtained from the Facultad de Farmacia (Universidad Complutense de, Madrid, Spain). The maintenance of the strains, the form of cultivation, and the isolation of shape promastigota were performed following the procedures described by Roldos et al.. The promastigotes were grown at 22 °C in Schneider’s Drosophila medium supplemented with 20% FBS. The assay was performed using a modification of a previous method. Promastigotes (2 × 10^6 parasites/well) were cultured in 96-well plastic plates. Compounds were dissolved in dimethylsulfoxide (DMSO). Different dilutions of the compounds with a final volume up to 200 µL were added. After 48 h at 26 °C, 20 µL of a 2 mM resazurin solution was added, and the oxidation-reduction was quantified at 570 and 600 nm. The solution of resazurin was prepared at 2.5 mM in phosphate buffered solution (PBS), pH 7.4, and filtered through 0.22 µm prior to use. All tests were carried out in triplicate. Resazurin sodium salt was obtained from Sigma-Aldrich (St. Louis, MO, USA) and stored at 4 °C protected from light. The efficacy of each compound was estimated by calculating the IC50 values.

T. cruzi epimastigotes = experiment: Antiepimastigote activity, T. cruzi CL-B5 lacZ (CPRG); type: cell-based, Trypanosoma cruzi; details: Trypanosoma cruzi, clone CL-B5, 72 h
Experimental: For in vitro studies of T. cruzi, the clone CL-B5 was used (donated by Faculty of Pharmacy, Complutense University, Madrid, Spain). Parasites were stably transfected with the Escherichia coli β-galactosidase gene (lacZ). Epimastigotes were grown at 28 °C in liver infusion tryptose broth (Difco, Detroit, MI, USA) with 10% fetal bovine serum (FBS) (Gibco, Carlsbad, CA, USA), penicillin (Ern S.A., Barcelona, Spain), and streptomycin (Reig Jofré S.A., Barcelona, Spain), as described previously, and harvested during the exponential growth phase. Briefly, the screening assay was performed in 96-well microplates (Sarstedt, Inc., Newton, NC, USA) with cultures that had not reached the stationary phase. Epimastigotes were seeded at 2 × 10^5 parasites/mL in 200 µL growth media. The plates were then incubated with the respective compounds at 28 °C for 72 h; afterwards, 50 µL of chlorophenol red-β-D-galactopyranoside (CPRG) solution was added, resulting in a final concentration of 200 µM. The plates were incubated at 37 °C for an additional 4 h and then read at 595 nm. Each concentration was tested in triplicate. The efficacy of each compound was estimated by calculating the IC50 values. These values were calculated by the sigmoidal dose–response curve adjustment using the statistical software program Graph-Pad Prims 3.0 (GraphPhad, San Diego, CA, USA). Benznidazole was used as the reference drug.

[6] = test system: L. braziliensis, L. amazonensis, and L. infantum amastigote; design: method as in PMID 26772973; details: read-out: IC50 against amastigote of three Leishmania species; cited from earlier work
[7] = test system: L. infantum promastigotes; experiment: Leishmanicidal activity on L. infantum promastigotes (resazurin); type: cell-based, Leishmania infantum; details: Leishmania infantum, 48 h, read-out: Leishmanicidal Activity on Promastigotes, L. infantum, IC50
Experimental: as §1

[8] = test system: L. donovani promastigotes; design: method as in PMID 19067375; details: cited from earlier work
[9] = Cytotoxicity on NCTC-Clone 929 fibroblasts (resazurin); type: cell-based; details: mouse
Experimental: The cell line used was NCTC-Clone 929, which was grown in Minimal Essential Medium (Sigma) supplemented with 10% heat-inactivated FBS, penicillin G (100 U/mL), and streptomycin (100 µg/mL). Cell cultures were maintained at 37 °C in a humidified 5% CO2 atmosphere. The procedure for cell viability measurement was evaluated with resazurin by a colorimetric method. The cells were plated in 96-microtiter plates at 3 × 10^4 cells per well in a 100 µL growth medium. The cells were grown overnight at 37 °C, 5% CO2. Thereafter, the medium was removed and the compounds were added in a 200 µL medium for 24 h. After incubation, 20 µL of a 2 mM resazurin solution was added to each well. The plates were incubated for 3 h to allow optimal oxidation-reduction. The reduction of resazurin was determined by dual wavelength absorbance measurement at 490 and 595 nm. Background was subtracted. Each concentration was assayed three times. Medium and drug controls were used in each test as blanks.

SMILES	IC50 [5] [µg/mL]	IC50 (T. cruzi epimastigotes) [µg/mL]	IC50 [7] [µg/mL]	IC50 at 24 h [9] [µg/mL]	also measured
COc1c(C(C)C)cc2c(c1O)[C@@]1(C(=O)O)CCCC(C)(C)[C@@H]1CC2 [12-methoxycarnosic acid]					IC50 [1]: 0.75 µM
CC1(C)CC[C@]2(C(=O)O)CC[C@]3(C)C(=CC[C@@H]4[C@@]5(C)CC[C@H](O)C(C)(C)[C@@H]5CC[C@]43C)[C@@H]2C1 [OA, Oleanolic acid]	> 256	> 256	> 256		IC50 against amastigote stage of L. amazonensis [2]: 11 µg/mL; IC50 [3]: 30 to 66 µM; IC50 against promastigote stage of L. amazonensis [4]: 10 µg/mL; IC50 [6]: 38 to 69 µM
CC(C)c1c(O)ccc2c1CC[C@H]1C(C)(C)CCC[C@]21C [totarol]					IC50 against L. donovani promastigotes [8]: 3.5 µg/mL (≈ 12.2 µM); IC90 against L. donovani promastigotes [8]: 6.9 µg/mL (≈ 24.1 µM)
CC1(C)CC[C@]2(C(=O)O)CC[C@]3(C)C(=CCC4[C@@]5(C)CC[C@H](OC(=O)CCc6cn(Cc7ccc(Cl)cc7)nn6)C(C)(C)C5CC[C@]43C)[C@@H]2C1 (stereo partly shown) [Compound 25]	> 256	> 256	> 256	> 256	
C#CCCC(=O)O[C@H]1CC[C@@]2(C)C(CC[C@]3(C)C2CC=C2[C@@H]4CC(C)(C)CC[C@]4(C(=O)OC)CC[C@]23C)C1(C)C (stereo partly shown) [Compound 18]	> 256	> 256	> 256	> 256	
Cc1ccc(S(=O)(=O)n2cc(CCCC(=O)O[C@H]3CC[C@@]4(C)C(CC[C@]5(C)C4CC=C4[C@@H]6CC(C)(C)CC[C@]6(C(=O)O)CC[C@]45C)C3(C)C)nn2)cc1 (stereo partly shown) [Compound 31]	> 256	> 256		> 256	IC50 ([7]; promastigotes): 128 µg/mL (≈ 171 µM)
COC(=O)[C@]12CCC(C)(C)C[C@H]1C1=CCC3[C@@]4(C)CC[C@H](OC(=O)CCc5cn(S(=O)(=O)c6ccc(C)cc6)nn5)C(C)(C)C4CC[C@@]3(C)[C@]1(C)CC2 (stereo partly shown) [Compound 28]		61 (≈ 81.5 µM)		> 256	IC50 ([5]; promastigotes): > 256 µg/mL; IC50 ([7]; promastigotes): > 256 µg/mL
C[C@H]1[C@H](C)CC[C@]2(C(=O)O)CC[C@]3(C)C(=CC[C@@H]4[C@@]5(C)CC[C@H](O)C(C)(C)[C@@H]5CC[C@]43C)[C@H]12 [Ursolic acid]					IC50 against amastigote stage of L. amazonensis [2]: 27 µg/mL; IC50 against promastigote stage of L. amazonensis [4]: 5 µg/mL
CC(C)c1ccc2c(c1)CCC1[C@](C)(COC(=O)CCc3cn(CSc4ccccc4)nn3)CCC[C@]21C (stereo partly shown) [Compound 9]	> 256	> 256	> 256	> 256	
CC(C)c1ccc2c(c1)CCC1[C@](C)(COC(=O)CCCCc3cn(-c4ccccc4)nn3)CCC[C@]21C (stereo partly shown) [Compound 6]	> 256	> 256	> 256	> 256	
CC(C)c1cc2c(cc1O)[C@@]1(C)CCCC(C)(C)[C@@H]1CC2 [ferruginol]					IC50 against L. donovani promastigotes [8]: 3.5 µg/mL (≈ 12.2 µM); IC90 against L. donovani promastigotes [8]: 7.0 µg/mL (≈ 24.4 µM)
COC(=O)[C@]12CCC(C)(C)C[C@H]1C1=CCC3[C@@]4(C)CC[C@H](OC(=O)CCc5cn(CSc6ccccc6)nn5)C(C)(C)C4CC[C@@]3(C)[C@]1(C)CC2 (stereo partly shown) [Compound 30]	> 256	> 256	> 256	> 256	
COC(=O)[C@]12CCC(C)(C)C[C@H]1C1=CCC3[C@@]4(C)CC[C@H](OC(=O)CCc5cn(-c6ccccc6)nn5)C(C)(C)C4CC[C@@]3(C)[C@]1(C)CC2 (stereo partly shown) [Compound 22]	> 256	> 256	> 256	> 256	
